Assay results as given in patent publication US6369225B1, “Compounds having activity as inhibitors of cytochrome P450RAI” (Allergan Sales, Inc., priority 2000, dated 2002).

Test system: skin of hairless mice
Test: topical skin irritation test in hairless mice
Format: in vivo, mouse
Details: topical in acetone, once daily days 1 through 5, mean ±SD, range 0-21
Description: Mice were housed individually throughout the dosing period.
Doses are disclosed as nmol/25 g.
The grading scale used is as follows:
Values can range from 0-9.
Values can range from 0-8.

Structure (SMILES)	Cutaneous Toxicity Score (Blackjack Score) (100 nmole (nmol/25 g))	Cutaneous Toxicity Score (Blackjack Score) (1000 nmole (nmol/25 g))	Cutaneous Toxicity Score (Blackjack Score) (300 nmole (nmol/25 g))
CC1(C)CCC(=O)c2ccc(C#Cc3ccc(CC(=O)O)cc3)cc21 [Compound 5, 4-[(8,8-Dimethyl-5-oxo-5,6,7,8-tetrahydro-naphthalene-2-yl-ethynyl)-phenyl]-acetic Acid]	0	6 ± 3	–
CN(C1CC1)C1CCC(C)(C)c2cc(C#Cc3ccc(CC(=O)O)cc3)ccc21 (centres unmarked) [Compound 8, 4-[(5-(Cyclopropyl-methyl-amino)-8,8-dimethyl-5,6,7,8-tetrahydro-naphthalene-2-yl-ethynyl)-phenyl]-acetic Acid]	5 ± 2	12 ± 1	8 ± 3
